In one data set the target is T1, ALK(L1196M) (Homo sapiens, UniProt Q9UM73, L1196M).
T1 construct: purchased Carna
The experiment in a line: In vitro kinase inhibitory activity assay, Experimental method 1 (ADP-Glo). The class given is biochemical. Particulars: final ATP 50 µM, read-out: Kinase half maximal inhibitory concentration IC50 ALK^L1196M. As for the experimental part:
(§1) The kinase inhibitory activity assays of the compounds against ALK, ALK^L1196M, ALK^G1202R, ALK^G1202R/L1196M, ROS1, and TRKB were conducted at Wuhan Heyan Biotechnology Co., Ltd. or Hefei PreceDo Biotechnology Co., Ltd.
(§2) Experimental materials: ALK Active, ALK(L1196M) Active, ALK(G1202R) Active, and ALK(G1202R/L1196M) Active were purchased from Carna; SRC Substrate was purchased from SignalChem; IGF1R tide was purchased from SignalChem; ADP-Glo Kinase Assay was purchased from Promega; Kinase assay buffer III was purchased from SignalChem; and Nivo multimode plate reader (PerkinElmer).
(§3) Each concentration of the compounds was further diluted 20-fold using 1X kinase buffer to prepare compound working solutions containing 5% DMSO. 1 µL of each concentration gradient working solution was added to a microplate, with duplicate wells set for each concentration. 2 µL of ALK enzyme (15 ng per well) and 2 µL of a mixture of substrate and ATP (25 µM ATP, 0.5 µg/µL SRC Substrate) were added to the microplate. […] The reaction system was placed at 25°C for 1 hour. After the reaction, 5 µL of ADP-Glo reagent was added to each well and reacted at 25°C for another 40 minutes. […] Chemiluminescence was then measured using the PerkinElmer Nivo multimode plate reader with an integration time of 0.5 seconds. […]
On the technique in general: In ADP-Glo the light output rises with the ADP produced.

A further data set has as its target T2, ALK(G1202R) (Homo sapiens, UniProt Q9UM73, G1202R).
T2 construct: purchased Carna
The data set is described as above. The class given is biochemical. As to conditions: final ATP 50 µM, read-out: Kinase half maximal inhibitory concentration IC50 ALK^G1202R. As for the experimental part: as §1, §2
(§4) Each concentration of the compounds was further diluted 20-fold using 1X kinase buffer to prepare compound working solutions containing 5% DMSO. 1 µL of each concentration gradient working solution was added to a microplate, with duplicate wells set for each concentration. 2 µL of ALK enzyme (15 ng per well) and 2 µL of a mixture of substrate and ATP (25 µM ATP, 0.5 µg/µL SRC Substrate) were added to the microplate. […] The reaction system was placed at 25°C for 1 hour. After the reaction, 5 µL of ADP-Glo reagent was added to each well and reacted at 25°C for another 40 minutes. After the reaction, 10 µL of kinase detection reagent was added to each well and reacted at 25°C for 30 minutes. Chemiluminescence was then measured using the PerkinElmer Nivo multimode plate reader with an integration time of 0.5 seconds.
ALK (G1202R) kinase inhibition assay method: The preparation method for the working solution of the test compound was the same as for the ALK kinase. […] The subsequent steps were the same as for ALK kinase.
(§5) The IC50 value could then be derived by performing a curve fit using a four-parameter logistic model (obtained using the "log(inhibitor) vs. response -- Variable slope" mode in GraphPad Prism).

In data set [1] the target is T3, TRKB (Homo sapiens, UniProt Q16620).
T3 construct: purchased Carna
T3 sequence (Q16620 32-822): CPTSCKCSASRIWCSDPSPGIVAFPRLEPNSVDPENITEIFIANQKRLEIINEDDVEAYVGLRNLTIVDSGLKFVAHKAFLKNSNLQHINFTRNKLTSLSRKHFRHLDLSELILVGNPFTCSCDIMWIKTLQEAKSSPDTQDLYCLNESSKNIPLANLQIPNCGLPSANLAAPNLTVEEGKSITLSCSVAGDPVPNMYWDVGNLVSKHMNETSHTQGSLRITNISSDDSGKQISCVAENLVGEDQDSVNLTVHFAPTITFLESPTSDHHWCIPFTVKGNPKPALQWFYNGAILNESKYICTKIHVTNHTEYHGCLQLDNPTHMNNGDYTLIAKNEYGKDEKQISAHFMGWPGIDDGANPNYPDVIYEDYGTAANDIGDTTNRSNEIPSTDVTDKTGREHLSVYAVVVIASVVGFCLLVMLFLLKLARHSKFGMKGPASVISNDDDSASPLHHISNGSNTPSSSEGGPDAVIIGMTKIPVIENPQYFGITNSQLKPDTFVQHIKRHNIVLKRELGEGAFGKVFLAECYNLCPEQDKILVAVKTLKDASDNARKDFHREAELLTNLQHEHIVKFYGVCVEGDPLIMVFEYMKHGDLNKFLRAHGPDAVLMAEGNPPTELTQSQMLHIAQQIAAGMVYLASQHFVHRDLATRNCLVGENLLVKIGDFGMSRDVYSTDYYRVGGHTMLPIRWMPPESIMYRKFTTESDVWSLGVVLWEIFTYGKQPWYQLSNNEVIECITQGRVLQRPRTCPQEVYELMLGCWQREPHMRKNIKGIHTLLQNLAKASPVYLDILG
The data set is described as above. The class given is biochemical. As to conditions: read-out: Kinase half maximal inhibitory concentration IC50 TRKB. On the procedure:
as §1, §2, §4
TRKB kinase inhibition assay method: The preparation method for the working solution of the test compound was the same as for the ALK kinase. 2 µL of TRKB (0.5 ng per well) and 4 µL of a mixture of substrate and ATP (5 µM ATP, 0.5 µM SRC Substrate) were added to the microplate. […] The subsequent steps were the same as for ALK kinase.
as §5

A further data set deals with ROS1 (Homo sapiens, UniProt P08922). The data set is described as above. The class given is biochemical. Particulars: read-out: Kinase half maximal inhibitory concentration IC50 ROS1. On the procedure:
as §1, §2, §3

For data set [2], the target named is T4, ALK(G1202R/L1196M) (Homo sapiens, UniProt Q9UM73, G1202R/L1196M).
T4 construct: purchased Carna
T4 sequence (Q9UM73 19-1620 L1196M/G1202R): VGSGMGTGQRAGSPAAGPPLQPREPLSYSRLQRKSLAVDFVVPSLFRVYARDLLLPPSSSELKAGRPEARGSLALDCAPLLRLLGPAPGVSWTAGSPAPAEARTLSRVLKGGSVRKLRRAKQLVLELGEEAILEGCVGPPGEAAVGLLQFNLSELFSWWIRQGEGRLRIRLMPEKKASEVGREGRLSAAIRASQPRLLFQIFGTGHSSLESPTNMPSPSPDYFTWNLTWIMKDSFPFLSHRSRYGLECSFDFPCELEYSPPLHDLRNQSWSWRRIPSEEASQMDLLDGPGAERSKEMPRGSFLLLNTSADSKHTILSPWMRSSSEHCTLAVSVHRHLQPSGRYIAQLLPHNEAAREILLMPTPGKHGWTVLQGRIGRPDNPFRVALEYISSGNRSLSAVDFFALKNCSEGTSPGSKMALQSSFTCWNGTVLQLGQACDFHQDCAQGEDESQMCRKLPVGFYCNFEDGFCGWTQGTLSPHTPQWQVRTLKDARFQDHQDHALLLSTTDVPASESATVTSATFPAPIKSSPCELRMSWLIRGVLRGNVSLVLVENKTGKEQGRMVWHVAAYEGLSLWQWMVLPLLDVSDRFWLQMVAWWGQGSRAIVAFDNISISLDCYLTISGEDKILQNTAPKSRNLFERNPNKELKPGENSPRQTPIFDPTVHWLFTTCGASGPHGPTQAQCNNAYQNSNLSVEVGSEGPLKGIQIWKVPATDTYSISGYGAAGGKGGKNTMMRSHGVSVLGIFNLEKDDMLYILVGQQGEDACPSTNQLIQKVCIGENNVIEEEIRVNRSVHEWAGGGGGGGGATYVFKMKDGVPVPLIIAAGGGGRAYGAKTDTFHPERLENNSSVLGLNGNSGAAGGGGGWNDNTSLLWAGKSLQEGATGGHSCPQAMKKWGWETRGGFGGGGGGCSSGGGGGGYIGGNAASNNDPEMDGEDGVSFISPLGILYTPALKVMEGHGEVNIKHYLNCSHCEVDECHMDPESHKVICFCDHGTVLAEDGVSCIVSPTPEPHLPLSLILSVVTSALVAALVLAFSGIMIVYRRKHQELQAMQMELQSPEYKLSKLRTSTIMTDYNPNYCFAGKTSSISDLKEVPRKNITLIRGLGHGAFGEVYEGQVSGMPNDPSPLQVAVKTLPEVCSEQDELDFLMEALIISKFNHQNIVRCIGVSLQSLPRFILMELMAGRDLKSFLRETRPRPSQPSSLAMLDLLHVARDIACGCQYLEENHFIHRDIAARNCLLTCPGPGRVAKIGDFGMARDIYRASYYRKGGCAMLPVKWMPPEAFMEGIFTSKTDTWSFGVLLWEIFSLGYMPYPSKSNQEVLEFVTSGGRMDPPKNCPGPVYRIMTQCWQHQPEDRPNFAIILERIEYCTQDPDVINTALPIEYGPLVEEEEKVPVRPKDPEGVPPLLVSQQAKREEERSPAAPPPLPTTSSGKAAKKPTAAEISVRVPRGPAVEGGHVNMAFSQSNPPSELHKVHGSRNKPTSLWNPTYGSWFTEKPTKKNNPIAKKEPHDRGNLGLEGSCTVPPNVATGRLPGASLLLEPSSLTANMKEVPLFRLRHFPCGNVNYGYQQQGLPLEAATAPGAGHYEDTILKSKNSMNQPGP
The description is as above. The class given is biochemical. Particulars: final ATP 50 µM, read-out: Kinase half maximal inhibitory concentration IC50 ALK^G1202R/L1196M. As for the experimental part: as §1, §2, §4
ALK (G1202R/L1196M) kinase inhibition assay method: The preparation method for the working solution of the test compound was the same as for the ALK kinase. […] The subsequent steps were the same as for ALK kinase.
as §5

The target in another data set is T5, ALK (Homo sapiens, UniProt Q9UM73).
T5 construct: purchased Carna
T5 sequence (Q9UM73 19-1620): as the sequence (Q9UM73 19-1620 L1196M/G1202R) above, with M1178L, R1184G counted along it
The data set is described as above. The class given is biochemical. As to conditions: final ATP 10 µM, read-out: Kinase half maximal inhibitory concentration IC50 ALK. As for the experimental part:
as §1, §2, §3

For the next data set, the system named is Ba/F3-TEL-TRKB. The experiment in a line: Anti-proliferative activity test on Ba/F3 cell lines (CellTiter-Glo). The class given is cell-based. As to conditions: Mus musculus, BaF3; 72 hours; read-out: Half maximal inhibitory concentration IC50 for cells Ba/F3-TEL-TRKB. As for the experimental part:
(§6) • (1) Cell culture: The cell lines were cultured in an incubator at 37°C with 5% CO2. Regular passaging was performed, and cells in the logarithmic growth phase were selected for plating; • (2) Preparation of compound storage plate: The test compounds were prepared into a 10 mM solution with DMSO (Stock Con.); The compounds were then prepared into a 1 mM solution with DMSO (Work Con.); 1 µL of the stock solution was mixed with 9 µL of DMSO to prepare a 10 µL work solution. • (3) Preparation of 1000× compound storage plate (tube): The compounds were 3-fold serially diluted from […] to the lowest concentration, for a total of 8 concentrations; • (4) Preparation of 20× compound working solution: 98 µL of cell culture medium was added to a flat-bottomed 96-well transparent drug plate. From the 1000× compound storage plate, 2 µL of the compound was pipetted into the cell culture medium in the 96-well transparent drug plate. In the solvent control, 2 µL of DMSO was added. After the compound or DMSO was added, the mixture was homogenized using a pipette. • (5) Cells were stained with trypan blue and viable cells were counted to ensure a cell viability of 90% or more. The cell concentration was adjusted to an appropriate concentration; • (6) 95 µL of cell suspension (2000 cells/well) was added to each well of the compound assay cell plate, and cell-free culture medium containing 0.1% DMSO was added to the Min control wells; • (7) Administration in the compound assay cell plate: 5 µL of 20× compound working solution was added to the cell culture plate, 5 µL of DMSO-cell culture medium mixture was added to the Max control wells, and the final concentration of DMSO was 0.1%; • (8) The culture plate was then incubated in an incubator at 37°C with 5% CO2 for 72 hours; • (9) The following operations were conducted in accordance with the instructions of the Promega CellTiter-Glo Luminescent Cell Viability Assay Kit (Promega-G7573): CellTiter-Glo buffer was thawed and brought to room temperature; CellTiter-Glo substrate was brought to room temperature; CellTiter-Glo buffer was added to a bottle of CellTiter-Glo substrate to dissolve the substrate, thereby preparing CellTiter-Glo working solution; The mixture was slowly vortexed and shaken to be fully dissolved; The cell culture plate was removed and allowed to equilibrate to room temperature for 10 minutes; 50 µL (equal to half the volume of cell culture medium in each well) of CellTiter-Glo working solution was added to each well; The culture plate was shaken on an orbital shaker for 2 minutes to induce cell lysis; The plate was then left at room temperature for 10 minutes to stabilize the luminescent signal; The luminescent signal was detected using a SpectraMax Paradigm plate reader; Cell viability assay was conducted using CellTiter-Glo luminescence method.
(§7) Data analysis: The corresponding […] value (RLU) for each well was obtained from SpectraMax Paradigm readings. […] The inhibition rates corresponding to compounds at different concentrations were calculated in Excel, and the inhibition rate curves were plotted using GraphPad Prism software to calculate relevant parameters, including the maximum and minimum inhibition rates of the cells and the IC50 value.
Background: Cellular ATP, detected with luciferase, serves as a proxy for viable cell number.

The test system of data set [3] is Ba/F3-EML4-ALK-G1202R/L1196M. Described as above. The class given is cell-based. As for the experimental part:
as §6, §7

Data set [4] is described as follows: HMS CLint (liver) test, hepatocyte metabolic stability. The class given is in vitro ADME. As to conditions: 0.5 × 10^6 cells/mL, up to 90 minutes. On the procedure:
The metabolic stability of the compounds of the present disclosure was tested in human and mouse hepatocytes.
• (1) Test compound (10 mM); Control: 7-ethoxycoumarin (30 mM), 7-hydroxycoumarin (reference substance, 30 mM); • Mouse hepatocytes with cell viability of 73.8%, supplier Cat No.: BioreclamationIVTM005052; • Human hepatocytes with cell viability of 94.6%, supplier Cat No.: Bioreclamation IVTX008001. • (2) Buffer system: Thawing medium: Williams' medium E containing 5% fetal bovine serum, 30% Percoll solution, and other auxiliary materials.
Incubation medium: Williams' medium E (without phenol red) containing 2 mM L-glutamine and 25 mM 4-(2-hydroxyethyl)-1-piperazineethanesulfonic acid.
Stop solution: acetonitrile containing 200 ng/mL tolbutamide and labetalol as internal standard. […]
The residual rates of the test compound and the control compound were determined using the following formula: Residual rate (%) = (Peak area ratio of compound to internal standard at any time point)/(Peak area ratio of compound to internal standard at 0 minutes) × 100% [formula]
The elimination rate constant (k) of the test compound and the control compound in hepatocytes was calculated by plotting the logarithm of the residual rate against time. […]

Data set [5] has as its target T4, ALK(G1202R/L1196M). The experiment in a line: In vitro kinase inhibitory activity assay, Experimental method 2 (ADP-Glo). The class given is biochemical. Particulars: Experimental method 2; ATP 5.0 µM, substrate IGF1; read-out: Kinase half maximal inhibitory concentration IC50 ALK^G1202R/L1196M. On the procedure: as §1
(§8) Experimental materials: ALK (G1202R/L1196M) Active and TRKB were purchased from Carna; IGF1 was purchased from GenScript; PolyE4Y1 was purchased from SIGMA; ADP-Glo™ Reagent was purchased from Promega; ATP was purchased from Promega; Kinase Detection Reagent was purchased from Promega; microplate reader ( PerkinElmer).
Reaction system: ALK(G1202R/L1196M) reaction concentration 8.63 nM, ATP concentration 5.0 µM, substrate IGF1 concentration 0.2 µg/µL. ALK(G1202R/L1196M) kinase buffer was 40 mM Tris-HCl (pH 7.5) + 20 mM magnesium chloride + 0.1 mg/mL BSA + 50 µM DTT.
(§9) ALK(G1202R/L1196M) and TRKB detection method: 2 µL of kinase and 1 µL of compound were added to a 384-well plate; 2 µL of substrate/ATP mixture was added and incubated at room temperature in the dark for 60 minutes; 5 µL of ADP-Glo™ reagent was added and incubated at room temperature for 40 minutes; 10 µL of kinase detection reagent was added and incubated at room temperature for 30 minutes; the plate was read on a microplate reader, and luminescence was recorded (integration time set to 0.5 seconds).
as §5

In data set [6] the target is T3, TRKB. The data set is described as above. The class given is biochemical. As to conditions: Experimental method 2; ATP 5.0 µM, substrate PolyE4Y1; read-out: Kinase half maximal inhibitory concentration IC50 TRKB. On the procedure: as §1, §8
TRKB reaction concentration 4.47 nM, ATP concentration 5.0 µM, substrate PolyE4Y1 concentration 0.2 µg/µL. TRKB kinase buffer was 40 mM Tris-HCl (pH 7.5) + 20 mM magnesium chloride + 2.5 mM manganese chloride + 0.1mg/mL BSA+ 50 µM DTT.
as §9, §5

Structures are written as SMILES.

T2 sequence (Q9UM73 19-1620 G1202R): as the sequence (Q9UM73 19-1620 L1196M/G1202R) above, with M1178L counted along it
Sequence of ROS1 (P08922 28-2347): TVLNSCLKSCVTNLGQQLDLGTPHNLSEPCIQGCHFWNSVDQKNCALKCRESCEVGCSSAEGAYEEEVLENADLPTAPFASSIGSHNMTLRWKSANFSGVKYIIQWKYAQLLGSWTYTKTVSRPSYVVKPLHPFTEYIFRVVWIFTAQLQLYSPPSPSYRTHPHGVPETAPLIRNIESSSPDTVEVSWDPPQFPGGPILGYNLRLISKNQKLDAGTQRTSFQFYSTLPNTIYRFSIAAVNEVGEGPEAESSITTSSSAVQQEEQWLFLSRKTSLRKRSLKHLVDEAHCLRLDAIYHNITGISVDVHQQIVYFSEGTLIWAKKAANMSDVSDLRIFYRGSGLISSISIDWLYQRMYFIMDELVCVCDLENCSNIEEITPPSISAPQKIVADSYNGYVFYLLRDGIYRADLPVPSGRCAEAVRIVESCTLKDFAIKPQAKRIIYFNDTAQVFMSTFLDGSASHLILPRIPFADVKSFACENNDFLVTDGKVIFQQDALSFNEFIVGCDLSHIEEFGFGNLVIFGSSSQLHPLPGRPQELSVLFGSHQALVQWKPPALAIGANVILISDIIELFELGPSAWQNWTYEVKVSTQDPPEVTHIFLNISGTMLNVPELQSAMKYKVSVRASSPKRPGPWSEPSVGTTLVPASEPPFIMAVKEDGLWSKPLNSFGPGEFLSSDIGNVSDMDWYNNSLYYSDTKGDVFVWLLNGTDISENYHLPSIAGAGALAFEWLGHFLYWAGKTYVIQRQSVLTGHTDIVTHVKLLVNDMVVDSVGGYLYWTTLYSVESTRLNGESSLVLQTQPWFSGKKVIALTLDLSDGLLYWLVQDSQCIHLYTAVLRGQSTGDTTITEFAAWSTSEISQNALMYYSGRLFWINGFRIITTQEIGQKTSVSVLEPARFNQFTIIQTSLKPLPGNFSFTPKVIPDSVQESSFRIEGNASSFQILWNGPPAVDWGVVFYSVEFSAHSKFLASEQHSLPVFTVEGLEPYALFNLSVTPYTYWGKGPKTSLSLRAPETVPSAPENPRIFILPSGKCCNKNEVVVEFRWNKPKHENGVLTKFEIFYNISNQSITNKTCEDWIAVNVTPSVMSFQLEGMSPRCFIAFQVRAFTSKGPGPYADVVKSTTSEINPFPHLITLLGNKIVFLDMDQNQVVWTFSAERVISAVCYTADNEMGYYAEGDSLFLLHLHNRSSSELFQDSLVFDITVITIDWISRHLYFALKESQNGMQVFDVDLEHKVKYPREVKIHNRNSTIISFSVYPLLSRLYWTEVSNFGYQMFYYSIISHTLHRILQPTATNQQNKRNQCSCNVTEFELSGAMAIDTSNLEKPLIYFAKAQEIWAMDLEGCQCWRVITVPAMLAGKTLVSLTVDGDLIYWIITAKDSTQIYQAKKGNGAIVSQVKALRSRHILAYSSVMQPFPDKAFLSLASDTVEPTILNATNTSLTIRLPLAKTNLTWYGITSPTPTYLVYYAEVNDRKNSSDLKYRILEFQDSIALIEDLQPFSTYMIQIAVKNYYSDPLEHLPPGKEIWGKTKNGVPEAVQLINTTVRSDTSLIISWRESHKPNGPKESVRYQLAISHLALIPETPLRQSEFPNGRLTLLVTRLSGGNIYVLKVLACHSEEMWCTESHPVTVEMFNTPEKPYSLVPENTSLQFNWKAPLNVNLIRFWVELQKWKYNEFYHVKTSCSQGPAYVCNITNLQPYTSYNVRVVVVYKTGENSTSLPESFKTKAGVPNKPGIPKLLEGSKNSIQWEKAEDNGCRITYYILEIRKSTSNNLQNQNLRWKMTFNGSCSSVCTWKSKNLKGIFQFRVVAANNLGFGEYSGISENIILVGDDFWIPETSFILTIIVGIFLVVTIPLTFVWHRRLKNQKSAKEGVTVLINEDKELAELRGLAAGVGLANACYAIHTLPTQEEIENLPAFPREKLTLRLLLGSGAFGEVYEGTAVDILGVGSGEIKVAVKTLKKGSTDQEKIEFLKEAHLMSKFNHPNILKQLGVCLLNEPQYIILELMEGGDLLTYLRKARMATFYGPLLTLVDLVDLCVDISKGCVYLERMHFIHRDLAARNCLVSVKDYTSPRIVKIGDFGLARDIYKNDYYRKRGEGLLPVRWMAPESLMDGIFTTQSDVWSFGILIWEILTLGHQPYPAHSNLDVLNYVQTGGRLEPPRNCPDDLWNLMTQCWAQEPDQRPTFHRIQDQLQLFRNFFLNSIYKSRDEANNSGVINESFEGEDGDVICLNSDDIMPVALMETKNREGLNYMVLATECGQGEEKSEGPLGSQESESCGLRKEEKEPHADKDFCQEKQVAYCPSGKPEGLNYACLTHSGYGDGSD
T1 sequence (Q9UM73 19-1620 L1196M): as the sequence (Q9UM73 19-1620 L1196M/G1202R) above, with R1184G counted along it

With `CON=C1NC(C)(C)COc2ccc(F)cc2CN2c3nc4c1cnn4cc3OC[C@H]2C(F)F` [Compound 001], the IC50 is 12.8 nM at ALK(L1196M); 16.9 nM on ALK(G1202R); 2.2 nM at TRKB [1]; 17.3 nM on ROS1; 12.4 nM on ALK(G1202R/L1196M) [2]; 22.2 nM on ALK.
For the molecule `CON=C1NC(C)(C)COc2ncc(F)cc2CN2c3nc4c1cnn4cc3OC[C@H]2C(F)F` [Compound 005], the IC50 at ALK(G1202R) came out at 3.8 nM; on TRKB [1] it was 1.2 nM; on ROS1, 0.6 nM; at ALK(G1202R/L1196M) [2] it was 5.2 nM.
For the molecule `CC#Cc1nn2cc3c4nc2c1C(=O)NC(C)(C)COc1ccc(F)cc1CN4[C@H](C(F)F)CO3` [Compound 018], the IC50 in the data set on Ba/F3-TEL-TRKB turned out to be 6.9 nM; in data set [3] (Ba/F3 EML4-ALK-G1202R-L1196M, 72 hours, read-out: Half maximal inhibitory concentration IC50 for cells Ba/F3-EML4-ALK-G1202R/L1196 M), 1.1 nM; on ALK(G1202R/L1196M) [5], 0.7 nM; at TRKB [6], 4.9 nM. In addition, the “selectivity: inhibition against ALK-mutant cells versus TRKB phenotypic cells” value in [3] (stronger inhibition of ALK-mutant cells, relatively weaker of TRKB phenotypic cells) is given as “excellent selectivity”. For the same molecule, the CLint scaled in [4] (Human hepatocytes) is below 17.8 mL/min/kg; in [4] (Mouse hepatocytes), 291 mL/min/kg.

As a reminder, the CLint scaled is the capacity of the preparation to metabolise the compound, expressed as a volume cleared per time. A high value points to faster metabolism.

Source of the values: patent EP4559919A1, “TRICYCLIC-CONTAINING MACROCYCLIC COMPOUND AND USE THEREOF” (Medshine Discovery Inc., priority 2022, dated 2024).
